From patent publication US10314305B2, “Liquid agrochemical compositions comprising a polymeric thickener and an alcohol-containing solvent system, and liquid herbicidal compositions having an alcohol-containing solvent system” (Syngenta Participations AG, priority 2012, dated 2019)

Assay: Solubility of active ingredients in solvents

CCc1cc(C)cc(CC)c1-c1c(OC(=O)C(C)(C)C)n2n(c1=O)CCOCC2 [pinoxaden, 8-(2,6-diethyl-4-methylphenyl)-1,2,4,5-tetrahydro-7-oxo-7H-pyrazolo[1,2-d][1,4,5]oxadiazepin-9-yl 2,2-dimethylpropionate]
Solvent quality of 1,2-propylene carbonate for the active ingredient (1,2-propylene carbonate): only a moderately good solvent
Solvent quality of tetrahydrofurfuryl alcohol (THFA) for the active ingredient (THFA): excellent solvent
Solvent quality of benzyl alcohol for the active ingredient (benzyl alcohol): excellent solvent
